Tested on: Dkk1-LRP5-TCF-Luciferase
Assay: Functional Dkk1-LRP5-TCF-Luciferase Assay in U2OS Cells
Details: for fold induction at 2 µM / fold induction at 20 µM / EC50: Homo sapiens, U2OS; for fold induction at 2 µM: read-out: B = TCF ACTIVITY/DMSO CONTROL Fold induction @ 2.0 uM, 2.0 uM compound; for fold induction at 20 µM: read-out: C = TCF ACTIVITY/DMSO CONTROL Fold induction @ 20.0 uM, 20.0 uM compound; for A = MAX FOLD Induction/DMSO CONTROL: maximum fold induction over DMSO control

Compound	fold induction at 2 µM	fold induction at 20 µM	A = MAX FOLD Induction/DMSO CONTROL [fold]	EC50 [µM]	C = TCF ACTIVITY/DMSO CONTROL Fold induction @ 20.0 uM (20.0 uM compound, 20 µM) [fold]
CN(c1nccc(-c2ccc3ccccc3c2)n1)C1CCN(CCOC(c2ccccc2)(c2ccccc2)c2ccccc2)CC1 [N-methyl-4-(2-naphthyl)-N-{1-[2-(trityloxy)ethyl]piperidin-4-yl}pyrimidin-2-amine]	1.14	1.02			
COC(=O)[C@@H](N)C1CCN(c2nccc(-c3ccc4ccccc4c3)n2)CC1 [methyl (2S)-amino{1-[4-(2-naphthyl)pyrimidin-2-yl]piperidin-4-yl}acetate]		0.57	1.590		
NS(=O)(=O)c1ccc(CNc2nccc(-c3ccc4ccccc4c3)n2)cc1 [4-({[4-(2-naphthyl)pyrimidin-2-yl]amino}methyl)benzenesulfonamide]	1.3	1.06			
COC(=O)N[C@H]1CC[C@H](Nc2nccc(-c3ccc4ccccc4c3)n2)CC1 [methyl (trans-4-{[4-(2-naphthyl)pyrimidin-2-yl]amino}cyclohexyl)carbamate]	2.53	1.66	2.490	12.3	
CC(=O)N(C)[C@@H]1CCN(c2nccc(-c3ccc4ccccc4c3)n2)C1 [N-methyl-N-{(3R)-1-[4-(2-naphthyl)pyrimidin-2-yl]pyrrolidin-3-yl}acetamide]	1.55	2.71	2.285	10	
c1ccc2cc(-c3ccnc(N4CCC(CN5CCC5)C4)n3)ccc2c1 (centres unmarked) [2-[3-(azetidin-1-ylmethyl)pyrrolidin-1-yl]-4-(2-naphthyl)pyrimidine]	1.73		2.500		
CN(C)S(=O)(=O)NCC1CCN(c2nccc(-c3ccc4ccccc4c3)n2)CC1 [N,N-dimethyl-N′-({1-[4-(2-naphthyl)pyrimidin-2-yl]piperidin-4-yl}methyl)sulfamide]	1.05	1.11			
c1ccc2cc(-c3ccnc(N4CCN(CCN5CCOCC5)CC4)n3)ccc2c1 [4-(2-{4-[4-(2-naphthyl)pyrimidin-2-yl]piperazin-1-yl}ethyl)morpholine]	1.53	3.49	2.400	4.6	3.000
c1ccc2cc(-c3ccnc(N4CC[C@H](N5CCCCC5)C4)n3)ccc2c1 [4-(2-naphthyl)-2-[(3S)-3-piperidin-1-ylpyrrolidin-1-yl]pyrimidine]	1.65				
Cc1ccc(S(=O)(=O)N2CC(CNc3nccc(-c4ccc5ccccc5c4)n3)C2)cc1 [N-({1-[(4-methylphenyl)sulfonyl]azetidin-3-yl}methyl)-4-(2-naphthyl)pyrimidin-2-amine]	1.45	1.2			
CN(C)CCCN(C)[C@H]1CCN(c2nccc(-c3ccc4ccccc4c3)n2)C1 [N,N,N′-trimethyl-N′-{(3S)-1-[4-(2-naphthyl)pyrimidin-2-yl]pyrrolidin-3-yl}propane-1,3-diamine]	2				
CN(C)[C@H]1CCN(C[C@@H]2CCN(c3nccc(-c4ccc5ccccc5c4)n3)C2)C1 [(3S)—N,N-dimethyl-1-({(3S)-1-[4-(2-naphthyl)pyrimidin-2-yl]pyrrolidin-3-yl}methyl)pyrrolidin-3-amine]	2.08	0.01	1.660		
NCc1ccc(-c2nccc(-c3ccc4ccccc4c3)n2)cc1 [1-{4-[4-(2-naphthyl)pyrimidin-2-yl]phenyl}methanamine]	2.5				
O=C(c1ccccc1)N1CC[C@@H](Nc2nccc(-c3ccc4ccccc4c3)n2)C1 [N-[(3R)-1-benzoylpyrrolidin-3-yl]-4-(2-naphthyl)pyrimidin-2-amine]	1.84				
CN(C)[C@H]1CCN([C@H]2CCN(c3nccc(-c4ccc5ccccc5c4)n3)C2)C1 [(3S,3′S)-N,N-dimethyl-1′-[4-(2-naphthyl)pyrimidin-2-yl]-1,3′-bipyrrolidin-3-amine]	2.47	0.02	2.030		
CN(c1nccc(-c2ccc3ccccc3c2)n1)[C@H]1CC[C@@H](CN)CC1 [N-[cis-4-(aminomethyl)cyclohexyl]-N-methyl-4-(2-naphthyl)pyrimidin-2-amine]	2.7				
O=C(c1ccco1)N1CCN(c2nccc(-c3ccc4ccccc4c3)n2)CC1 [2-[4-(2-furoyl)piperazin-1-yl]-4-(2-naphthyl)pyrimidine]	1.49	3.62	1.630		
CCN(CCO)C[C@H]1CCN(c2nccc(-c3ccc4ccccc4c3)n2)C1 [2-[ethyl({(3R)-1-[4-(2-naphthyl)pyrimidin-2-yl]pyrrolidin-3-yl}methyl)amino]ethanol]	2.93	0.15	3.895	2.92	
O=C(N[C@@H]1CCN(c2nccc(-c3ccc4ccccc4c3)n2)C1)c1ccc(Cl)cc1 [4-chloro-N-{(3R)-1-[4-(2-naphthyl)pyrimidin-2-yl]pyrrolidin-3-yl}benzamide]	1.68				

Compound	fold induction at 2 µM	fold induction at 20 µM	A = MAX FOLD Induction/DMSO CONTROL [fold]	EC50 [µM]	C = TCF ACTIVITY/DMSO CONTROL Fold induction @ 20.0 uM (20.0 uM compound, 20 µM) [fold]
CN(C)CCCN1CCN(c2nccc(-c3ccc4ccccc4c3)n2)CC1 [N,N-dimethyl-3-{4-[4-(2-naphthyl)pyrimidin-2-yl]piperazin-1-yl}propan-1-amine]	1.87				
O=C(N1CCCC1)N1CCC(Nc2nccc(-c3ccc4ccccc4c3)n2)CC1 [4-(2-naphthyl)-N-[1-(pyrrolidin-1-ylcarbonyl)piperidin-4-yl]pyrimidin-2-amine]	1.06	0.96			
CN(C)CCN1CCN(c2nccc(-c3ccc4ccccc4c3)n2)CC1 [N,N-dimethyl-2-{4-[4-(2-naphthyl)pyrimidin-2-yl]piperazin-1-yl}ethanamine]	2.55	0.01	2.440		
Cc1ccc(S(=O)(=O)NCC2CN(c3nccc(-c4ccc5ccccc5c4)n3)C2)cc1 [4-methyl-N-({1-[4-(2-naphthyl)pyrimidin-2-yl]azetidin-3-yl}methyl)benzenesulfonamide]	1.16	0.28			
O=CN1CC[C@H](Nc2nccc(-c3ccc4ccccc4c3)n2)C1 [(3S)-3-{[4-(2-naphthyl)pyrimidin-2-yl]amino}pyrrolidine-1-carbaldehyde]	1.8	3.51	3.165	6.8	
NC(=O)C1CCCN(c2nccc(-c3ccc4ccccc4c3)n2)C1 (centres unmarked) [1-[4-(2-naphthyl)pyrimidin-2-yl]piperidine-3-carboxamide]	2.17	2.7	2.230	1.27	
CN(C)S(=O)(=O)NCC1CCN(c2nccc(-c3ccc4ccccc4c3)n2)C1 (centres unmarked) [N,N-dimethyl-N′-({1-[4-(2-naphthyl)pyrimidin-2-yl]pyrrolidin-3-yl}methyl)sulfamide]	0.99	1.2			
O=C1CCCN1[C@H]1CCN(c2nccc(-c3ccc4ccccc4c3)n2)C1 [(3′S)-1′-[4-(2-naphthyl)pyrimidin-2-yl]-1,3′-bipyrrolidin-2-one]	3.04	3.62	2.290	0.189	
CCCOc1ccc2cc(-c3ccnc(N4CCC(CN)CC4)n3)ccc2c1 [1-{1-[4-(6-propoxy-2-naphthyl)pyrimidin-2-yl]piperidin-4-yl}methanamine]	1.33				
O=C1CN(CC2CCN(c3nccc(-c4ccc5ccccc5c4)n3)CC2)CCN1 [4-({1-[4-(2-naphthyl)pyrimidin-2-yl]piperidin-4-yl}methyl)piperazin-2-one]	1.16	1.49			
CC(=O)N(C)CCN(C)[C@@H]1CCN(c2nccc(-c3ccc4ccccc4c3)n2)C1 [N-methyl-N-[2-(methyl{(3R)-1-[4-(2-naphthyl)pyrimidin-2-yl]pyrrolidin-3-yl}amino)ethyl]acetamide]		4.4			
CCN(CC)c1nccc(-c2ccc3ccccc3c2)n1 [N,N-diethyl-4-(2-naphthyl)pyrimidin-2-amine]	1.75	1.68	1.260		
C[C@H](N)C1CCN(c2nccc(-c3ccc4ccccc4c3)n2)CC1 [(1S)-1-{1-[4-(2-naphthyl)pyrimidin-2-yl]piperidin-4-yl}ethanamine]			1.940	0.865	
CCN(C)CCN(C)[C@@H]1CCN(c2nccc(-c3ccc4ccccc4c3)n2)C1 [N-ethyl-N,N′-dimethyl-N′-{(3R)-1-[4-(2-naphthyl)pyrimidin-2-yl]pyrrolidin-3-yl}ethane-1,2-diamine]	1.8				
CS(=O)(=O)NCCC1CCN(c2nccc(-c3ccc4ccccc4c3)n2)CC1 [N-(2-{1-[4-(2-naphthyl)pyrimidin-2-yl]piperidin-4-yl}ethyl)methanesulfonamide]			0.880		
CC1(C)OC(=O)N[C@@H]1C1CCN(c2nccc(-c3ccc4ccccc4c3)n2)CC1 [(4R)-5,5-dimethyl-4-{1-[4-(2-naphthyl)pyrimidin-2-yl]piperidin-4-yl}-1,3-oxazolidin-2-one]	1.98	1.39	1.585		
CS(=O)(=O)NCC1CCN(c2nccc(-c3ccc4ccccc4c3)n2)CC1 [N-({1-[4-(2-naphthyl)pyrimidin-2-yl]piperidin-4-yl}methyl)methanesulfonamide]	1.12	0.48			
CCS(=O)(=O)N(C)CCN(C)[C@@H]1CCN(c2nccc(-c3ccc4ccccc4c3)n2)C1 [N-methyl-N-[2-(methyl{(3R)-1-[4-(2-naphthyl)pyrimidin-2-yl]pyrrolidin-3-yl}amino)ethyl]ethanesulfonamide]		1.3			

Reference: patent publication US20090054392A1, “NAPHTHYLPYRIMIDINE, NAPHTHYLPYRAZINE AND NAPHTHYLPYRIDAZINE ANALOGS AND THEIR USE AS AGONISTS OF THE WNT-BETA-CATENIN CELLULAR MESSAGING SYSTEM” (Wyeth, priority 2007, published 2009)
